Experimental data reported in paper PMC3386930, “Altering APP Proteolysis: Increasing sAPPalpha Production by Targeting Dimerization of the APP Ectodomain” (PLoS ONE, 2012).
Entries after “also recorded” stand apart in the source; their conditions may differ.

Columns and labels:
[1] = tested on: B103 rat neuroblastoma cells stably expressing human wild-type APP; assay: sAPPα and sAPPβ production in B103 cells (AlphaLISA); type: cell-based; conditions: 1 µM compound, 24 hours, 100,000 cells per well, vs 0.01% DMSO
Procedure: (§1) B103 rat neuroblastoma cells and 7W-CHO cells were seeded at 100,000 or 50,000 cells per well in a 96-well plate and allowed to grow for one day. The B103 rat neuroblastoma cells stably expressing human wild-type APP were a kind gift from Dr. Lennart Mucke (J. David Gladstone Institute of Neurological Disease and University of California, San Francisco). The 7W-CHO cells were a kind gift from Dr. Edward Koo (Department of Molecular Pathology, University of California, San Diego). The cell culture medium was then changed and the cells treated with 1 µM disulfiram, 1 µM sulfiram, or 0.01% DMSO (control). After 24 hours, the amount of sAPPα and sAPPβ produced in the medium was quantified using the AL231C and AL232C AlphaLISA kits from Perkin Elmer, respectively, modified using a custom biotinylated APP antibody.
A) Effect of treatment with disulfiram and sulfiram on sAPPα and Aβ production in 7W-CHO cells. […] After 24 hours, the amount of sAPPα and sAPPβ produced in the medium was quantified using the AL231C and AL232C AlphaLISA kit from Perkin Elmer, modified using a custom biotinylated human APP antibody. B) Effect on the ratio of α to β cleavage in 7W-CHO cells, as calculated by dividing the amount of sAPPα to sAPPβ produced by the 50,000 7W-CHO cells during one day under the effect of either disulfiram, sulfiram or a DMSO control. […]

[2] = molecular target: T1, eAPP230–624 (Homo sapiens, UniProt P05067); assay: Intrinsic tryptophan fluorescence of eAPP230–624; type: binding
T1 construct: made in house
Procedure: (§2) The excitation spectra of the intrinsic tryptophan fluorescence were recorded using either a Shimadzu RF-530PC (Shimadzu Scientific Instruments) or a Spectramax XPS spectrophotometer (Molecular Devices).
Full emission spectra were measured with the Shimadzu RF-530PC using a 3 ml quartz cuvette, a 5 nm slit width and protein concentrations between 0.2–0.6 µM. […] For these larger dilutions, control titrations with the protein alone were used to generate a scaling matrix where the scale factor was both a function of wavelength and dilution. […] A similar scaling matrix was used to correct for the effect of dilution with DMSO. […] All titrations were performed at 24°C. The oligomers were stored on ice during the experiment.
These concentrations are analogous to concentrations used to create complexes for the small angle x-ray scattering analysis. The incubated material was diluted with PBS so that the final protein concentration was 0.5 µM. The spectra were recorded with the Shimadzu […].
For experiments with the Spectromax XPS plate reader, an excitation wavelength of 295 nm was used. This excitation wavelength was chosen to minimize both the contribution of tyrosine in the protein and the background fluorescence of the 96-well plates (Costar #3915).
For the quenching experiments, the data were analyzed by constructing Stern-Volmer plots, F0/F vs. Q, where Fo is the intensity of the fluorescence at zero concentration, F is the intensity of the fluorescence, and Q is the concentration of the quenching agent. When quenching is through either a static (binding) or dynamic (collisional) mechanism this plot is linear and follows the equation: [drawing 1] (1) where Ksv is the quenching constant. When both processes are present the Stern-Volmer plot is quadratic: [drawing 2] (2) where KD is the equilibrium constant associated with dynamic quenching and Ks is the equilibrium constant associated with static quenching. All parameters were determined using PRISM (GraphPad) and the appropriate non-linear curve fitting routine.
The centroid wavelength (λc) was calculated as: [drawing 3] (3) where I(λi) is the intensity observed for the wavelength (λi). The range of wavelengths was 310–390 nm.

[3] = tested on: MBP-eAPP230–624; assay: Small-angle X-ray scattering (SAXS) of MBP-eAPP230–624 complexes; type: binding; conditions: 50 µM compound, 1:12 molar ratio, PBS plus 2% DMSO
Procedure: as §2
The samples were incubated on ice for 20 minutes and then concentrated to 50 µl with 10-kDa cutoff concentrators (Millipore). […] Samples of the filtrates were used for buffer subtraction.
The samples were then concentrated and purified with a Superdex S200 size-exclusion column with 20 mM Tris pH 7.4, 100 mM sodium chloride and 2 mM EDTA. Samples of the protein buffer from the size-exclusion columns were used for buffer subtraction.
Data collection and processing
Small-angle X-ray scattering data were collected using protein concentrations in the range of 0.5–3 mg/ml and an X-ray wavelength of 1.11 Å at beam line 12.3.1 (Advanced Light Source). Data were integrated with software customized for the beam line and processed with the program PRIMUS [30]. The program GNOM [31] was used to calculate the maximum dimension and the radius of gyration and to estimate the intensity of the scattering at zero angle for higher concentration samples.

[4] = tested on: MBP-eAPP230–624; assay: ADAM10 cleavage of MBP-eAPP230–624 in vitro (sAPPα AlphaLISA); type: biochemical; conditions: 1 uM disulfiram 15 minutes, then ADAM10 60 minutes
Procedure: Then, ADAM10 was added for 60 minutes. Time points were taken every 20 minutes.

[5] = tested on: 7W-CHO cells; assay: sAPPα and sAPPβ production in 7W-CHO cells (AlphaLISA); type: cell-based; conditions: 1 µM compound, 24 hours, 50,000 cells per well, vs 0.01% DMSO
Procedure: as §1
A) Effect of treatment with disulfiram and sulfiram on sAPPα and Aβ production in 7W-CHO cells. 7W-CHO cells were seeded at 50,000 cells per well in a 96-well plate and allowed to grow for one day. The cell culture medium was then changed and the cells treated with 1 µM disulfiram, 1 µM sulfiram, or 0.01% DMSO (control). After 24 hours, the amount of sAPPα and sAPPβ produced in the medium was quantified using the AL231C and AL232C AlphaLISA kit from Perkin Elmer, modified using a custom biotinylated human APP antibody. B) Effect on the ratio of α to β cleavage in 7W-CHO cells, as calculated by dividing the amount of sAPPα to sAPPβ produced by the 50,000 7W-CHO cells during one day under the effect of either disulfiram, sulfiram or a DMSO control. C) Effect on the ratio of α to β cleavage in B103 cells. B103 neuroblastoma cells were seeded at 100,000 cells per well in a 96-well plate and allowed to grow for one day. The cell culture medium was then changed and the cells treated with 1 µM disulfiram, 1 µM sulfiram, or 0.01% DMSO (Control). After 24 hours, the amount of sAPPα and sAPPβ produced in the medium was quantified using the same modified AL231C and AL232C AlphaLISA kit from Perkin Elmer. The ratio of α to β cleavage was calculated by dividing the amount of sAPPα to sAPPβ produced by the 100,000 B103 cells during one day under the effect of the disulfiram, sulfiram or DMSO control.

[6] = molecular target: T1, eAPP230–624; assay: Difference absorption spectra of eAPP230–624; type: binding; conditions: 1:6 molar ratio, 8.3 µM eAPP230–624, 50 µM compound, PBS plus 2% DMSO

T1 sequence (P05067 230-624 isoform P05067-4): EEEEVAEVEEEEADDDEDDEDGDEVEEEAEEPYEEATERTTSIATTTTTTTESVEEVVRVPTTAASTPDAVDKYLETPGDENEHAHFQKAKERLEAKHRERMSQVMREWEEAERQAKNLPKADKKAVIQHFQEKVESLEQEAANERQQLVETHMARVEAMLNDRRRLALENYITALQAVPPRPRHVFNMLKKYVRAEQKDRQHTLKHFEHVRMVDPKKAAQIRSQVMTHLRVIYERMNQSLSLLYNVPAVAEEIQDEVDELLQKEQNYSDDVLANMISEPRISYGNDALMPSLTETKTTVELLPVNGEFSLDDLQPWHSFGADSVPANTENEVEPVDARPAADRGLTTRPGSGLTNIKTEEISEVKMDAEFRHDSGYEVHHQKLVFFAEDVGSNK

Q: For `CCN(CC)C(=S)SSC(=S)N(CC)CC` [Disulfiram], which “sAPPα production / α-cleavage of APP (in words)” value (shortened to “sAPPα production / α-cleavage”) [1] is on record?
A: significantly enhance the production of sAPPα; also recorded: enhance α-cleavage significantly

Q: And the “fluorescence peak wavelength (shifted from 344 nm)” value ([2]; 0.64 µM eAPP230–624, disulfiram 0–130 µM)?
A: 357 nm

Q: And the “quenching of intrinsic fluorescence (in words)” value ([2]; 0.64 µM eAPP230–624, disulfiram 0–130 µM, sulfiram 0–320 µM, Shimadzu RF-530PC)?
A: significantly quenched the intrinsic fluorescence

Q: And the “Stern-Volmer slope relative to sulfiram” value ([2]; 0.64 µM eAPP230–624, disulfiram vs sulfiram)?
A: 1.6 times

Q: And the “relative binding affinity for eAPP230–624 (in words)” value ([2]; inferred from Stern-Volmer slopes, disulfiram vs sulfiram)?
A: higher binding affinity for eAPP230–624 than sulfiram

Q: What about the “effect on dimerization of the ectodomain fragment (in words)” value ([2]; intrinsic fluorescence, confirmed with SAXS) of the same compound?
A: inhibit dimerization of the ectodomain fragment

Q: And the “effect on monomer-dimer equilibrium / dimerization of MBP-eAPP230–624 (in words)” value [3]?
A: inhibits dimerization of MBP-eAPP230–624

Q: What about the “effect on monomer-dimer equilibrium / dimerization of MBP-eAPP230–624 (in words)” value ([3]; listed as disulfiram) of the same compound?
A: significantly affected the monomer-dimer equilibrium of MBP-eAPP230–624 in favor of the monomer; also recorded: mixture of monomer and dimer

Q: What about the “accessibility of the α-cleavage site to ADAM10 cleavage (in words)” value [4] of the same compound?
A: increase the accessibility of the α-cleavage site near lysine 612 to ADAM10 cleavage

Q: What about the “sAPPα production / α-cleavage” value [5] of the same compound?
A: increase sAPPα production

Q: What about the “sAPPα production / α-cleavage” value ([5]; listed as disulfiram) of the same compound?
A: significantly enhance the production of sAPPα; also recorded: enhance α-cleavage significantly

Q: What about the “change in extinction coefficient” value [6] of the same compound?
A: significant drop in the extinction coefficient
